# Data from patent US6737383B1, “Herbicidal oxadiazolidines” (priority 1999, dated 2004).
# Assays:
# pigweed = test: Test B pre/postemergence pigweed; format: in vivo, Amaranthus retroflexus
# Summary of the method: (§1)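 Herbicidal effect was estimated by eye on a ten-point control scale after plants spent twelve to sixteen days in a greenhouse following soil or foliar treatment. Foliar sprays targeted plants at one to four leaves; all doses were formulated in a non-phytotoxic solvent with surfactant.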
# bedstraw = test: Test B pre/postemergence bedstraw; format: in vivo, Galium aparine
# Summary of the method: as §1
# soybean = test: Test B pre/postemergence soybean; format: in vivo, Glycine max
# Summary of the method: as §1
# purple nutsedge = test: Test B pre/postemergence purple nutsedge; format: in vivo, Cyperus rotundus
# Summary of the method: as §1
# velvetleaf = test: Test B pre/postemergence velvetleaf; format: in vivo, Abutilon theophrasti
# Summary of the method: as §1
# surinam grass = test: Test B pre/postemergence surinam grass; format: in vivo, Brachiaria decumbens
# Summary of the method: as §1
# sugar beet = test: Test B pre/postemergence sugar beet; format: in vivo, Beta vulgaris
# Summary of the method: as §1
# smallflower flatsedge = test: Test B flood test smallflower flatsedge; format: in vivo, Cyperus difformis
# Summary of the method: (§2)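 Plants were grown to the 2-leaf stage before treatment with test chemical, then held in a greenhouse for twelve to sixteen days. Injury was visually rated against untreated controls on a 0–10 scale, where 0 is no effect and 10 is complete control.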
# cocklebur = test: Test B pre/postemergence cocklebur; format: in vivo, Xanthium strumarium
# Summary of the method: as §1
# blackgrass = test: Test B pre/postemergence blackgrass; format: in vivo, Alopecurus myosuroides
# Summary of the method: as §1
# crabgrass = test: Test B pre/postemergence crabgrass; format: in vivo, Digitaria sanguinalis
# Summary of the method: as §1
# corn = test: Test B pre/postemergence corn; format: in vivo, Zea mays
# Summary of the method: as §1
# rape = test: Test B pre/postemergence rape; format: in vivo, Brassica napus
# Summary of the method: as §1
# wheat = test: Test B pre/postemergence wheat; format: in vivo, Triticum aestivum
# Summary of the method: as §1
# bamyardgrass = test: Test B flood test barnyardgrass; format: in vivo, Echinochloa crus-galli
# Summary of the method: as §2
# wild oat = test: Test B pre/postemergence wild oat; format: in vivo, Avena fatua
# Summary of the method: as §1
# [1] = Postemergence, Rate 250 g/ha, scale 0 to 10, 0 no effect, 10 complete control
# [2] = Postemergence, Rate 1000 g/ha, scale 0 to 10 (0 no effect, 10 complete control)
# [3] = Preemergence, Rate 125 g/ha, scale 0 to 10 (0 no effect, 10 complete control)
# [4] = Preemergence, Rate 250 g/ha, scale of 0 to 10 where 0 is no effect and 10 is complete control
# [5] = Preemergence, Rate 500 g/ha, scale 0 (no effect) to 10 (complete control)
# [6] = Rate 125 g/ha, Postemergence, scale 0 to 10, 0 no effect, 10 complete control
# [7] = Rate 500 g/ha, Postemergence, 0 to 10 scale (0 no effect, 10 complete control)
# [8] = Rate 1000 g/ha, Preemergence, scale 0 to 10 (0 no effect, 10 complete control)
# [9] = Rate 125 g/ha, Postemergence section (flood test species), scale 0 to 10, 0 no effect, 10 complete control
# [10] = flood test, listed under Postemergence, Rate 250 g/ha, scale 0 to 10, 0 no effect, 10 complete control
structure (smiles),measurement,setting,value
CC(C)N(C(=O)n1oc(=O)n(-c2ccc(OC(F)(F)F)cc2)c1=O)C1=CCOCC1 [Compound 13],Redroot pigweed plant response rating,pigweed; [1],0
same,Redroot pigweed plant response rating,pigweed; [2],0
same,"Plant response rating, Redroot pigweed",pigweed; [3],0
same,"Plant response rating, Redroot pigweed",pigweed; [4],0
same,Redroot pigweed plant response rating,pigweed; [5],0
same,Redroot pigweed plant response rating,pigweed; [6],0
same,Redroot pigweed plant response rating,pigweed; [7],0
same,"Plant response rating, Redroot pigweed",pigweed; [8],3
same,Bedstraw plant response rating,bedstraw; [1],0
same,Bedstraw plant response rating,bedstraw; [2],0
same,"Plant response rating, Bedstraw",bedstraw; [3],0
same,"Plant response rating, Bedstraw",bedstraw; [4],0
same,Bedstraw plant response rating,bedstraw; [5],0
same,Bedstraw plant response rating,bedstraw; [6],0
same,Bedstraw plant response rating,bedstraw; [7],0
same,"Plant response rating, Bedstraw",bedstraw; [8],3
same,Soybean plant response rating,soybean; [1],2
same,Soybean plant response rating,soybean; [2],3
same,"Plant response rating, Soybean",soybean; [3],0
same,"Plant response rating, Soybean",soybean; [4],0
same,Soybean plant response rating,soybean; [5],0
same,Soybean plant response rating,soybean; [6],1
same,"Plant response rating, Soybean",soybean; [8],0
same,Nutsedge plant response rating,purple nutsedge; [1],0
same,Nutsedge plant response rating,purple nutsedge; [2],0
same,"Plant response rating, Nutsedge",purple nutsedge; [3],0
same,"Plant response rating, Nutsedge",purple nutsedge; [4],0
same,Nutsedge plant response rating,purple nutsedge; [5],0
same,Nutsedge plant response rating,purple nutsedge; [6],0
same,Nutsedge plant response rating,purple nutsedge; [7],0
same,"Plant response rating, Nutsedge",purple nutsedge; [8],0
same,Velvetleaf plant response rating,velvetleaf; [1],0
same,Velvetleaf plant response rating,velvetleaf; [2],0
same,"Plant response rating, Velvetleaf",velvetleaf; [3],0
same,"Plant response rating, Velvetleaf",velvetleaf; [4],0
same,Velvetleaf plant response rating,velvetleaf; [5],0
same,Velvetleaf plant response rating,velvetleaf; [6],0
same,"Plant response rating, Velvetleaf",velvetleaf; [8],2
same,B. signalgrass plant response rating,surinam grass; [1],2
same,B. signalgrass plant response rating,surinam grass; [2],6
same,"Plant response rating, B. signalgrass",surinam grass; [3],0
same,"Plant response rating, B. signalgrass",surinam grass; [4],2
same,B. signalgrass plant response rating,surinam grass; [5],4
same,B. signalgrass plant response rating,surinam grass; [6],0
same,B. signalgrass plant response rating,surinam grass; [7],5
same,"Plant response rating, B. signalgrass",surinam grass; [8],8
same,Sugarbeets plant response rating,sugar beet; [1],0
same,Sugarbeets plant response rating,sugar beet; [2],0
same,"Plant response rating, Sugarbeets",sugar beet; [3],0
same,"Plant response rating, Sugarbeets",sugar beet; [4],0
same,Sugarbeets plant response rating,sugar beet; [5],0
same,Sugarbeets plant response rating,sugar beet; [6],0
same,"Plant response rating, Sugarbeets",sugar beet; [8],0
same,S. Flatsedge plant response rating,smallflower flatsedge; [2],0
same,S. Flatsedge plant response rating,smallflower flatsedge; [9],0
same,S. Flatsedge plant response rating,smallflower flatsedge; [10],0
same,Cocklebur plant response rating,cocklebur; [1],0
same,Cocklebur plant response rating,cocklebur; [2],0
same,"Plant response rating, Cocklebur",cocklebur; [3],0
same,"Plant response rating, Cocklebur",cocklebur; [4],0
same,Cocklebur plant response rating,cocklebur; [5],0
same,Cocklebur plant response rating,cocklebur; [6],0
same,Cocklebur plant response rating,cocklebur; [7],0
same,Blackgrass plant response rating,blackgrass; [1],3
same,Blackgrass plant response rating,blackgrass; [2],8
same,"Plant response rating, Blackgrass",blackgrass; [3],0
same,"Plant response rating, Blackgrass",blackgrass; [4],0
same,Blackgrass plant response rating,blackgrass; [5],6
same,Blackgrass plant response rating,blackgrass; [6],0
same,Blackgrass plant response rating,blackgrass; [7],4
same,"Plant response rating, Blackgrass",blackgrass; [8],9
same,Crabgrass plant response rating,crabgrass; [1],5
same,Crabgrass plant response rating,crabgrass; [2],9
same,"Plant response rating, Crabgrass",crabgrass; [3],2
same,"Plant response rating, Crabgrass",crabgrass; [4],5
same,Crabgrass plant response rating,crabgrass; [5],5
same,Crabgrass plant response rating,crabgrass; [6],1
same,Crabgrass plant response rating,crabgrass; [7],9
same,"Plant response rating, Crabgrass",crabgrass; [8],8
same,Corn plant response rating,corn; [1],0
same,Corn plant response rating,corn; [2],0
same,"Plant response rating, Corn",corn; [3],0
same,"Plant response rating, Corn",corn; [4],0
same,Corn plant response rating,corn; [5],0
same,Corn plant response rating,corn; [6],0
same,Corn plant response rating,corn; [7],0
same,"Plant response rating, Corn",corn; [8],0
same,Rape plant response rating,rape; [1],0
same,Rape plant response rating,rape; [2],1
same,"Plant response rating, Rape",rape; [3],0
same,"Plant response rating, Rape",rape; [4],0
same,Rape plant response rating,rape; [5],0
same,Rape plant response rating,rape; [6],0
same,Rape plant response rating,rape; [7],1
same,"Plant response rating, Rape",rape; [8],0
same,Wheat plant response rating,wheat; [1],0
same,Wheat plant response rating,wheat; [2],0
same,"Plant response rating, Wheat",wheat; [3],0
same,"Plant response rating, Wheat",wheat; [4],0
same,Wheat plant response rating,wheat; [5],0
same,Wheat plant response rating,wheat; [6],0
same,"Plant response rating, Wheat",wheat; [8],0
same,Barnyardgrass plant response rating,bamyardgrass; [2],0
same,Barnyardgrass plant response rating,bamyardgrass; [9],0
same,Barnyardgrass plant response rating,"bamyardgrass; Rate 500 g/ha, Postemergence section of Table B, 0 to 10 scale (0 no effect, 10 complete control)",0
same,Barnyardgrass plant response rating,bamyardgrass; [10],0
same,Wild oats plant response rating,wild oat; [1],0
same,Wild oats plant response rating,wild oat; [2],2
same,"Plant response rating, Wild oats",wild oat; [3],0
same,"Plant response rating, Wild oats",wild oat; [4],0
same,Wild oats plant response rating,wild oat; [5],2
same,Wild oats plant response rating,wild oat; [6],0
same,"Plant response rating, Wild oats",wild oat; [8],7
